# Measured values taken from patent US7759367B2, “Pharmaceutical compositions and their uses” (Eisai R&D Management Co., Ltd., priority 2001, dated 2010).
# Like-named read-outs stand apart in the source and are kept apart here.
# How the values were obtained:
# male mice of ddy strain = experiment: Anticonvulsant action induced by AMPA (Test Example 2); type: in vivo; conditions: 25 mg/kg orally, AMPA 2 nmole/5 μl/minute/mouse into lateral ventricle 30 minutes or 1 hour after dosing
# Description: A test compound was suspended in a 0.5% methyl cellulose solution or in sesame oil and was orally administered (25 mg/kg) to male mice of ddy strain. After 30 minutes or 1 hour from the oral administration, AMPA was continuously injected (2 nmole/5 μl/minute/mouse) into lateral ventricle to induce the convulsions. The effect was judged by a time-extending action until the convulsion takes place by a continuous injection of AMPA.
# [1] = primary culture of rat embryo cerebral cortex nerve cells, Fura2-AM, 2 μM AMPA, 1 μM MK-801
# [2] = suppression of AMPA-induced calcium influx into nerve cells, Table 2
# 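For IC50 in this document: neurons cultured at least 8 to 10 days atop an astrocyte layer in 96-well plates, calcium entry read as the change in Fura2 fluorescence ratio at 340/380 nm excitation.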
# Description for AMPA receptor: Cerebral cortex was cut out from the brain of rat of gestational 18 days and treated with trypsin and DNase to disperse the cells. The cells were flown by MEM containing 10% of serum, sown in a culture bottle and astrocytes were proliferated. The astrocytes were re-dispersed by trypsin and sown in a 96-well plate. After incubation for one week, it was confirmed that the astrocytes covered all over the bottom and then the nerve cells of cerebral cortex which was dispersed by the above method were sown thereupon. After incubation for 24 hours, the medium was changed, the incubation was carried out for one week and, after that, the medium was changed to that containing 1 μM of MK-801. Nerve cells which were incubated for not shorter than 8 to 10 days were used.
# Calcium influx into the cells was measured using Fura2-AM which was a calcium-sensitive fluorescent dye. It was treated in a medium containing Fura2-AM for 1 hour, incorporated into the cells, exchanged to a Tyrode solution containing 1 μM MK-801 and stimulation was carried out using 2 μM AMPA. Change in the amount of calcium flown into the cells were measured as the change in the fluorescent intensity at the exciting wave length of 340/380 nm.
Compound,IC50 (AMPA receptor; [1]) [nM],further results
"O=c1c(-c2cccnc2Cl)cc(-c2ccccn2)cn1-c1ccccc1 [Example 4, 3-(2-Chloro-3-pyridyl)-5-(2-pyridyl)-1-phenyl-1,2-dihydropyridin-2-one]",–,Anticonvulsant action (time-extending action until convulsion by continuous AMPA injection) (male mice of ddy strain): significant anticonvulsant action
"N#Cc1ccccc1-c1cc(-c2ccccn2)cn(-c2cccc([N+](=O)[O-])c2)c1=O [Example 8, 3-(2-Cyanophenyl)-5-(2-pyridyl)-1-(3-nitrophenyl)-1,2-dihydropyridin-2-one]",100,–
"CS(=O)(=O)Nc1cccc(-n2cc(-c3ccccn3)cc(-c3ccccc3C#N)c2=O)c1 [Example 10, 3-(2-Cyanophenyl)-5-(2-pyridyl)-1-(3-methylsulfonylaminophenyl)-1,2-dihydropyridin-2-one]",50,–
"CNc1cccc(-n2cc(-c3ccccn3)cc(-c3ccccc3C#N)c2=O)c1 [Example 11, 3-(2-Cyanophenyl)-5-(2-pyridyl)-1-(3-methylaminophenyl)-1,2-dihydropyridin-2-one]",60,–
"COC(=O)c1cccc(-n2cc(-c3ccccn3)cc(-c3ccccc3C#N)c2=O)c1 [Example 14, 3-(2-Cyanophenyl)-5-(2-pyridyl)-1-(3-methoxycarbonylphenyl)-1,2-dihydropyridin-2-one]",100,–
"CNC(=O)c1cccc(-n2cc(-c3ccccn3)cc(-c3ccccc3C#N)c2=O)c1 [Example 15, 3-(2-Cyanophenyl)-5-(2-pyridyl)-1-(3-methylaminocarbonylphenyl)-1,2-dihydropyridin-2-one]",50,–
"N#Cc1ccccc1-c1cc(-c2ccccn2)cn(-c2cccc(C=O)c2)c1=O [Example 20, 3-(2-Cyanophenyl)-5-(2-pyridyl)-1-(3-formylphenyl)-1,2-dihydropyridin-2-one]",40,–
"N#Cc1ccccc1-c1cc(-c2ccccn2)cn(-c2cccc(CO)c2)c1=O [Example 21, 3-(2-Cyanophenyl)-5-(2-pyridyl)-1-(3-hydroxymethylphenyl)-1,2-dihydropyridin-2-one]",30,–
"N#CCc1cccc(-n2cc(-c3ccccn3)cc(-c3ccccc3C#N)c2=O)c1 [Example 22, 3-(2-Cyanophenyl)-5-(2-pyridyl)-1-(3-cyanomethylphenyl)-1,2-dihydropyridin-2-one]",60,–
"CSc1ccc(-n2cc(-c3ccccn3)cc(-c3ccccc3C#N)c2=O)cc1 [Example 26, 3-(2-Cyanophenyl)-5-(2-pyridyl)-1(4-methylthiophenyl)-1,2-dihydropyridin-2-one]",20,–
"CS(=O)(=O)c1ccc(-n2cc(-c3ccccn3)cc(-c3ccccc3C#N)c2=O)cc1 [Example 27, 3-(2-Cyanophenyl)-5-(2-pyridyl)-1-(4-methylsulfonylphenyl)-1,2-dihydropyridin-2-one]",50,–
"N#Cc1ccccc1-c1cc(-c2ccccn2)c(=O)n(-c2ccccc2)c1 [Example 33, 3-(2-Pyridyl)-5-(2-cyanophenyl)-1-phenyl-1,2-dihydropyridin-2-one]",700,–
"N#Cc1ccccc1-c1cc(-c2ccccc2)cn(-c2cccnc2)c1=O [Example 47, 3-(2-Cyanophenyl)-5-phenyl-1-(3-pyridyl)-1,2-dihydropyridin-2-one]",–,Anticonvulsant action (time-extending action until convulsion by continuous AMPA injection) (male mice of ddy strain): significant anticonvulsant action
"O=c1c(-c2ccccc2Cl)cc(-c2ccccn2)cn1-c1ccccc1 [Example 57, 3-(2-Chlorophenyl)-5-(2-pyridyl)-1-phenyl-1,2-dihydropyridin-2-one]",–,Anticonvulsant action (time-extending action until convulsion by continuous AMPA injection) (male mice of ddy strain): significant anticonvulsant action
"O=c1c(-c2ccccc2)cc(-c2ccccn2)cn1-c1ccccc1 [Example 61, 3-Phenyl-5-(2-pyridyl)-1-phenyl-1,2-dihydropyridin-2-one]",–,Anticonvulsant action (time-extending action until convulsion by continuous AMPA injection) (male mice of ddy strain): significant anticonvulsant action
"COc1ccc(-c2cc(-c3ccccn3)cn(-c3ccccc3)c2=O)cn1 [Example 77, 3-(2-Methoxy-5-pyridyl)-5-(2-pyridyl)-1-phenyl-1,2-dihydropyridin-2-one]",20,–
"N#Cc1cccnc1-c1cc(-c2ccccc2)cn(-c2cccnc2)c1=O [Example 79, 3-(3-Cyano-2-pyridyl)-5-phenyl-1-(3-pyridyl)-1,2-dihydropyridin-2-one]",2600,–
"COc1ccc(-n2cc(-c3ccccn3)cc(-c3cccnc3F)c2=O)cn1 [Example 86, 3-(2-Fluoro-3-pyridyl)-5-(2-pyridyl)-1-(2-methoxy-5-pyridyl)-1,2-dihydropyridin-2-one]",1900,–
"N#Cc1ccccc1-c1cc(-c2ccccn2)cn(-c2cccc(F)c2)c1=O [Example 92, 3-(2-Cyanophenyl)-5-(2-pyridyl)-1-(3-fluorophenyl)-1,2-dihydropyridin-2-one]",50,–
"COc1cccc(-n2cc(-c3ccccn3)cc(-c3ccccc3C#N)c2=O)c1 [Example 96, 3-(2-Cyanophenyl)-5-(2-pyridyl)-1-(3-methoxyphenyl)-1,2-dihydropyridin-2-one]",60,–

Compound,IC50 (AMPA receptor; [1]) [nM],further results
"N#Cc1ccccc1-c1cc(-c2ccccn2)cn(-c2cccc(Cl)c2)c1=O [Example 102, 3-(2-Cyanophenyl)-5-(2-pyridyl)-1-(3-chlorophenyl)-1,2-dihydropyridin-2-one]",20,–
"Cc1cccc(-n2cc(-c3ccccn3)cc(-c3ccccc3C#N)c2=O)c1 [Example 103, 3-(2-Cyanophenyl)-5-(2-pyridyl)-1-(3-tolyl)-1,2-dihydropyridin-2-one]",30,–
"N#Cc1ccccc1-c1cc(-c2ccccn2)cn(-c2ccsc2)c1=O [Example 105, 3-(2-Cyanophenyl)-5-(2-pyridyl)-1-(thiophen-3-yl)-1,2-dihydropyridin-2-one]",30,–
"N#Cc1ccccc1-c1cc(-c2ccccn2)cn(-c2ccoc2)c1=O [Example 106, 3-(2-Cyanophenyl)-5-(2-pyridyl)-1-(3-furyl)-1,2-dihydropyridin-2-one]",70,–
"Cc1ccc(-n2cc(-c3ccccn3)cc(-c3ccccc3C#N)c2=O)cc1 [Example 107, 3-(2-Cyanophenyl)-5-(2-pyridyl)-1-(4-tolyl)-1,2-dihydropyridin-2-one]",70,–
"N#Cc1ccccc1-c1cc(-c2ccccn2)cn(-c2ccc(C(F)(F)F)cc2)c1=O [Example 108, 3-(2-Cyanophenyl)-5-(2-pyridyl)-1-(4-trifluoromethylphenyl)-1,2-dihydropyridin-2-one]",30,–
"COc1ccc(-n2cc(-c3ccccn3)cc(-c3ccccc3C#N)c2=O)cn1 [Example 109, 3-(2-Cyanophenyl)-5-(2-pyridyl)-1-(2-methoxypyridin-5-yl)-1,2-dihydropyridin-2-one]",10,–
"COc1cncc(-n2cc(-c3ccccn3)cc(-c3ccccc3C#N)c2=O)c1 [Example 118, 3-(2-Cyanophenyl)-5-(2-pyridyl)-1-(3-methoxypyridin-5-yl)-1,2-dihydropyridin-2-one]",100,–
"COc1ccccc1-n1cc(-c2ccccn2)cc(-c2ccccc2C#N)c1=O [Example 126, 3-(2-Cyanophenyl)-5-(2-pyridyl)-1-(2-methoxyphenyl)-1,2-dihydropyridin-2-one]",–,Anticonvulsant action (time-extending action until convulsion by continuous AMPA injection) (male mice of ddy strain): significant anticonvulsant action
"O=c1c(-c2ccccc2Cl)cc(-c2ccccn2)cn1-c1cccnc1 [Example 128, 3-(2-Chlorophenyl)-5-(2-pyridyl)-1-(3-pyridyl)-1,2-dihydropyridin-2-one]",–,Anticonvulsant action (time-extending action until convulsion by continuous AMPA injection) (male mice of ddy strain): significant anticonvulsant action
"O=c1c(-c2ccc(Cl)cc2Cl)cc(-c2ccccn2)cn1-c1cccnc1 [Example 131, 3-(2,4-Dichlorophenyl)-5-(2-pyridyl)-1-(3-pyridyl)-1,2-dihydropyridin-2-one]",37000,–
"COc1ccc(-c2cc(-c3ccccc3C#N)c(=O)n(-c3ccccc3)c2)cn1 [Example 200, 3-(2-Cyanophenyl)-5-(2-methoxypyridin-5-yl)-phenyl-1,2-dihydropyridin-2-one]",–,IC50 (AMPA receptor; [2]): 2000 nM
"N#Cc1ccccc1-c1cc(-c2ccccn2)cn(-c2ccc(N)cc2)c1=O [Example 215, 1-(4-Aminophenyl)-3-(2-cyanophenyl)-5-(2-pyridyl)-1,2-dihydropyridin-2-one]",–,IC50 (AMPA receptor; [2]): 100 nM
"N#Cc1ccccc1-c1cc(-c2ccccn2)cn(-c2cccc(OCCCN3CCCCC3)c2)c1=O [Example 244, 3-(2-Cyanophenyl)-1-(3-piperidinopropoxyphenyl)-5-(2-pyridyl)-1,2-dihydropyridin-2-one]",–,IC50 (AMPA receptor; [2]): 1800 nM
"O=c1c(-c2cccnc2F)cc(-c2ncccn2)cn1-c1cccnc1 [Example 263, 3-(2-Fluoropyridin-3-yl)-1-(3-pyridyl)-5-(2-pyrimidinyl)-1,2-dihydropyridin-2-one]",–,IC50 (AMPA receptor; [2]): 1000 nM
"O=c1c(-c2cccc3ccccc23)cc(-c2ccccn2)cn1-c1cccnc1 [Example 279, 3-(1-Naphthyl)-5-(2-pyridyl)-1-(3-pyridyl)-1,2-dihydropyridin-2-one]",–,IC50 (AMPA receptor; [2]): 3710 nM
"O=c1c(-c2cc3ccccc3n2S(=O)(=O)c2ccccc2)cc(-c2ccccn2)cn1-c1ccccc1 [Example 293, 3-(1-Benzenesulfonylindol-2-yl)-1-phenyl-5-(2-pyridyl)-1,2-dihydropyridin-2-one]",–,IC50 (AMPA receptor; [2]): 3300 nM
"N#Cc1ccccc1-c1cc(-c2ccccn2)cn(-c2cccc(O)c2)c1=O [Example 315, 3-(2-Cyanophenyl)-1-(3-hydroxyphenyl)-5-(2-pyridyl)-1,2-dihydropyridin-2-one]",80,–
"O=c1c(C2C3CC4CC(C3)CC2C4)cc(-c2ccccn2)cn1-c1ccccc1 (stereo not shown) [Example 387, 3-(2-Adamantyl)-5-(2-pyridyl)-1-phenyl-1,2-dihydropyridin-2-one]",7000,–
"CC1=NN=C(c2ccc(N)cc2)c2cc3c(cc2C1)OCO3 [GYKI 52466, reference compound]",9020,–
